Test results: patent US8933015B2, “Macrocyclic inhibitors of flaviviridae viruses” (Gilead Sciences, Inc., priority 2010, dated 2015)
Like-named read-outs stand apart in the source and are kept apart here.

Settings: rcm bond, 22-membered ring

| Compound | ring closure, isolated yield (from C=CCC[C@@H](OC)[C@@H](C)C(=O)N[C@H](C(=O)N[C@@H](Cc1cccc(O[Si](C)(C)C(C)(C)C)c1)C(=O)N1CCC[C@@H](C(=O)OCc2cc(C=C)ccn2)N1)C(C)C, Hoveyda-Grubbs II, DCE, 2.69 mM, 80.0 °C, 3.0 h) [%] | ring closure, isolated yield (from C=CCC[C@@H](OC)[C@@H](C)C(=O)N[C@H](C(=O)N[C@@H](Cc1cccc(O[Si](C)(C)C(C)(C)C)c1)C(=O)N1CCC[C@@H](C(=O)OCc2cccc(C=C)c2)N1)C(C)C, Grubbs I, DCM, 3.0 mM, 40.0 °C, 16.0 h) [%] |
| --- | --- | --- |
| CO[C@@H]1CC/C=C/c2ccnc(c2)COC(=O)[C@@H]2CCCN(N2)C(=O)[C@H](Cc2cccc(O[Si](C)(C)C(C)(C)C)c2)NC(=O)[C@H](C(C)C)NC(=O)[C@@H]1C | 61 | – |
| CO[C@@H]1CCC=Cc2cccc(c2)COC(=O)[C@@H]2CCCN(N2)C(=O)[C@H](Cc2cccc(O[Si](C)(C)C(C)(C)C)c2)NC(=O)[C@H](C(C)C)NC(=O)[C@@H]1C | – | 75 |
